“Also recorded” adds a separate entry of the source.
Key:
[1] = tested on: hippocampal neurons; assay: Photostimulation of chARGed hippocampal neurons in primary culture, whole-cell current clamp; type: cell-based; conditions: 50 μM AP-5 plus 10 μM CNQX together; n=5 neurons
Procedure: (§1) Synthetic all-trans retinal (Sigma) was diluted, from a 100-mM stock in DMSO, to 40 μM in the appropriate extracellular recording solution (see below) and allowed to bind to NinaE for 15 min in the dark. A mechanically shuttered (Uniblitz, Vincent Associates) Lambda DG-4 rapid wavelength changer (Sutter Instruments) delivered <2 mW of stimulating light without ultraviolet and infrared (E400LP, Chroma; Hot Mirror, Newport) components through 20×/0.4 (oocytes) or 40×/0.8 W (neurons) Zeiss Achroplan objectives. In some experiments, a short pre-illumination with red light (E600LP plus HQ625/40, both from Chroma) preceded the white-light stimulus. Light source and shutter were controlled through pClamp 8.0 (Axon Instruments) and MetaFluor 4.5 (Universal Imaging).
Hippocampal neurons obtained from E19 rats were grown in dissociated cultures (Yuste, Miller et al. “Synapto-pHluorins: chimeras between pH-sensitive mutants of green fluorescent protein and synaptic vesicle membrane proteins as reporters of neurotransmitter release,” Methods Enzymol 522–46 (2000)) and transfected with a calcium phosphate precipitate (pH 7.08) formed from a 1:1 mixture of CsCl-banded pChARGe-1 and pChARGe-2. Neurons were exposed to 4.2 μg/cm^2 of precipitated DNA for 20 minutes. Transfections were done on day 8 after plating, recordings on days 6–10 after transfection. Neurons were identified under DIC and epifluorescence illumination (to distinguish transfected from untransfected cells; FIG. 3) and placed under whole-cell current clamp before reconstitution of NinaE with retinal. Patch pipettes (˜2.5 MΩ) contained, in mM, 120 K-gluconate, 10 KCl, 5 ATP, 0.3 GTP, and 10 K-HEPES, pH 7.2. The extracellular recording solution contained, in mM, 119 NaCl, 2.5 KCl, 2 CaCl2, 1 MgCl2, 30 glucose, 25 Na-HEPES, pH 7.4. Membrane potentials were recorded with an Axoclamp-2B amplifier (Axon Instruments) in bridge mode and digitized at 5 kHz (Digidata 1200, Axon Instruments).
For intracellular recordings of light-evoked electrical activity, neurons were placed under whole-cell current clamp before reconstitution of NinaE with retinal. […] Exposure to white light increased the frequency of action potentials dramatically (FIGS. 4, A–D, and FIG. 5). Peak firing frequencies of 7.5 Hz (evaluated in sliding 2-s windows), equal to those generated by the direct injection of 200–250 pA of sustained depolarizing current into transfected and untransfected neurons, appeared after latency periods of a few hundred ms to several tens of s (n=18 neurons). […]

[2] = tested on: Xenopus oocytes; assay: Light-evoked photocurrents in voltage-clamped Xenopus oocytes expressing Drosophila phototransduction proteins; type: cell-based
Procedure: as §1
Stage VI oocytes were microinjected with the specified mRNA mixtures, which were adjusted to keep the doses of individual messages constant at 2–4 fmol/oocyte. Photocurrents were recorded at −80 mV with a two-electrode voltage-clamp amplifier (Axoclamp-2B, Axon Instruments) 2–4 days after mRNA injection. Electrodes (2–3 MΩ) were filled with 3 M KCl; the extracellular recording solution (Barth's Saline) contained, in mM, 87.5 NaCl, 2 KCl, 2.4 NaHCO3, 2 CaCl2, 1 MgCl2, 5 Tris-HCl, pH 7.2. Signals were externally amplified (CyberAmp 380, Axon Instruments) before digitization at 100 Hz (Digidata 1200, Axon Instruments). To block IP3-sensitive Ca^2+ stores where indicated, 20 μM xestospongin C (Gafni et al., 1997; Calbiochem) was present throughout the experiment, beginning with the retinal load.
Unliganded NinaE in the membrane of voltage-clamped oocytes was reconstituted in the dark with 40 μM synthetic all-trans retinal, to form a metarhodopsin-like intermediate that could be further photoconverted (Hillman et al., 1983; Kiselev and Subramaniam, 1994; Ranganathan and Stevens, 1995) to rhodopsin. […]

| SMILES | EPSPs in the membrane potential record under glutamate receptor block [1] | light-induced action potentials under glutamate receptor block [1] | dependence of light-evoked current responses on reconstitution of NinaE with retinal ([2]; 40 μM all-trans retinal, 15 min in the dark, n=9 oocytes) | photocurrent over time after a single retinal load, in the absence of exogenous retinal ([2]; NinaE reconstituted with 40 μM all-trans retinal for 15 min, then retinal-free perfusion for hours, n=8 oocytes) | light-evoked current responses in the presence of xestospongin C ([2]; 20 μM xestospongin C present throughout, oocytes expressing 10 photoreceptor proteins, n=5 oocytes) |
| --- | --- | --- | --- | --- | --- |
| NC(CCCP(=O)(O)O)C(=O)O (racemic) [AP-5, D,L-2-amino-5-phosphonovaleric acid] | vanished; also recorded: elimination | persisted | – | – | – |
| N#Cc1cc2c(cc1[N+](=O)[O-])=NC(=O)C(=O)N=2 [CNQX, 6-cyano-7-nitroquinoxaline-2,3-dione] | vanished; also recorded: elimination | persisted | – | – | – |
| CC1=C(/C=C/C(C)=C/C=C/C(C)=C/C=O)C(C)(C)CCC1 [all-trans retinal] | – | – | required | no attenuation | – |
| C1CCC[C@H]2CCCN3CC[C@@H](CCCCCC[C@@H]4CCCN5CC[C@@H](CC1)O[C@@H]45)O[C@@H]23 [xestospongin C] | – | – | – | – | inhibited |

Reference: patent US7144733B2, “Bio-synthetic photostimulators and methods of use” (Sloan-Kettering Institute for Cancer Research, priority 2001, dated 2006)
